What was measured:
[1] = Plasma stability in rat plasma; format: in vitro ADME; details: 37° C.
Procedure: (§1) Briefly 10 μl of a stock solution 250 μM of compound 1 in acetonitrile were added to 1 ml of rat and human plasma, and samples were incubated at 37° C. Plasma (50 μL) was taken after 0, 1 and 5 hours of incubation and added to 140 μl of acetonitrile with addition of verapamil as internal standard (250 ng/ml). Samples were analysed by HPLC-MS/MS analysis.
(§2) Plasma stability was calculated as percentage remaining after 1 and 5 hours by dividing the peak area at 1 or 5 hours by the area of the peak at time 0. […] The other compounds of the invention behave similarly.

[2] = Plasma stability in human plasma; format: in vitro ADME; details: 37° C.
Procedure: as §1, §2

Measured: plasma stability, percentage remaining

O=C(OC(c1cccc(F)c1)c1cccc(F)c1)O[C@H]1C[N+]2(CC(=O)c3cccs3)CCC1CC2.[Cl-] [Compound 1, (R)-3-[Bis-(3-fluoro-phenyl)-methoxycarbonyloxy]-1-(2-oxo-2-thiophen-2-yl-ethyl)-1-azonia-bicyclo[2.2.2]octane; chloride]
less than 2%: [1]; after 1 hour of incubation | [1]; after 5 hours of incubation | [2]; after 1 hour of incubation | [2]; after 5 hours of incubation

From patent US8039483B2, “Quinuclidine carbonate salts and medicinal composition thereof” (Chiesi Farmaceutici S.p.A., priority 2008, dated 2011)
